Data on two compounds can be found in PMC6344527, “Toxicity and possible mechanisms of action of honokiol from Magnolia denudata seeds against four mosquito species” (Scientific Reports, 2019).

In brackets after ≈: the same amount, converted by molar mass. Like-named read-outs stand apart in the source and are kept apart here.

One series has as its system AaV-type H^+-ATPase mRNA. Briefly: real-time qRT-PCR of target gene expression. It counts as in vivo, Aedes aegypti. The note with it: fold higher than the control group; anal gills; honokiol 6.5 mg/L or magnolol 25 mg/L, 24 h. How it is done:
(§1) Real-time qRT-PCR with SYBR Green dye was performed to determine whether honokiol and magnolol treatment affected the expression levels of three target genes, AaAQP4, AaV-type H^+-ATPase and AeCS1, in Ae. aegypti. […] Total RNA was extracted from the anal gills (for AaAQP4 and AaV-type H^+-ATPase) and midgut (for AeCS1) of 50 larvae using an RNeasy Mini Kit (Qiagen, Valencia, CA, USA) according to the manufacturer’s instructions. Residual genomic DNA was removed using RQ1 RNase-Free DNase (Promega, Fitchburg, WI, USA), and 1 μg of total RNA from each sample was used for complementary DNA (cDNA) synthesis with an oligo(dT) primer (Invitrogen, Grand Island, NY, USA) according to the protocol of the SuperScript III Reverse Transcriptase Kit. Real-time qRT-PCR was performed in 96-well plates using the StepOne Plus Real-Time PCR System (Applied Biosystems, Foster, CA, USA). Each reaction mixture consisted of 10 μL of the SYBR Green PCR Master Mix Kit (Applied Biosystems, Warrington, Cheshire, UK), 2 μL of the forward and reverse primers (10 pmol each), 1 μL of cDNA (25 ng) and diethylpyrocarbonate-treated water for a final volume of 20 μL. The oligonucleotide PCR primer pairs are listed in Table 9 and were purchased from Cosmo Genetech (Seoul). The cycling program included an initial hold at 95 °C for 5 min, followed by 35 cycles at 95 °C for 30 s, at 58 °C for 30 s, at 72 °C for 1 min, and an extension at 72 °C for 5 min using an Applied Bioscience Thermal Cycler. The mRNA expression levels of the target genes were normalized to the mRNA expression level of the housekeeping gene Aarps7 and analyzed by the 2^−ΔΔCT method using the Applied Biosystems StepOne Software v2.1 and DataAssist Software. The results are expressed as the means ± SEs of duplicate samples from three independent experiments.

The subject of a further series is AaAQP4 mRNA. Briefly: real-time qRT-PCR of target gene expression. The series is classed as in vivo, Aedes aegypti. The conditions noted are these: fold higher than the control group; anal gills; honokiol 6.5 mg/L or magnolol 25 mg/L, 24 h. How it is done: as §1
For orientation: Quantitative PCR measures a nucleic acid by following its amplification.

For the next series, the system named is AeCS1 mRNA. Briefly: real-time qRT-PCR of target gene expression. It counts as in vivo, Aedes aegypti. The note with it: compared to control larvae; midgut; honokiol 6.5 mg/L or magnolol 25 mg/L, 24 h. How it is done:
as §1

The target in series [1] is acetylcholinesterase (AChE) from third-instar Ae. aegypti larvae (Aedes aegypti, UniProt A4GND7). Briefly: acetylcholinesterase inhibition assay. The series is classed as biochemical. The conditions noted are these: based on IC50 values. How it is done: The in vitro AChE inhibitory activity of the test compounds was assessed according to the method of Perumalsamy et al.[42]. Third-instar Ae. aegypti larvae were used in all experiments. Whole bodies of 50 larvae were homogenized in 1 mL of ice-cold 0.1 M phosphate buffer (pH 8.0) using a glass tissue homogenizer. After filtering through cheesecloth, the homogenate was centrifuged at 1,000 × g at 4 °C for 5 min. The supernatant was used directly as the enzyme source for AChE. The protein levels were determined using the Bradford Protein Assay Kit (Bio-Rad Laboratories, Hercules, CA, USA) using BSA as the standard. The reaction mixture consisted of 50 µL of the crude enzyme preparation (4.3–4.8 µg protein equivalents), 150 µL of 0.1 M phosphate buffer, 20 µL of 3 mM DTNB in phosphate buffer (pH 7.0), and 1 µL of various concentrations of each test compound in ethanol. The reaction mixture was incubated at 30 °C for 5 min, and 20 µL of 32 mM ATChI was then added to the mixture. After incubation for 30 min, the reaction was terminated by adding 20 µL of 5 mM eserine salicylate. Absorbance was recorded at 412 nm using a VersaMax microplate reader (Molecular Devices, Sunnyvale, CA, USA). […] The results are expressed as the means ± standard errors (SEs) of triplicate samples from three independent experiments.
(§2) The concentration of the test compounds required to produce 50% AChE inhibitory activity (IC50) was determined using the SAS 9.13 program (Cary: SAS Institute; 2014). Concentration-mortality data were subjected to probit analysis using the SAS 9.13 program. […] Statistical analyses were performed using the SAS 9.13 program. Multiple linear regression and correlation analysis were performed using the SPSS 24 program (Armonk: IBM Corp.; 2016).

The test system of series [2] is third-instar Ae. aegypti larvae. Briefly: light microscopy analysis of treated larvae. The series is classed as in vivo, Aedes aegypti. The conditions noted are these: honokiol 6.5 mg/L or magnolol 25 mg/L (LC50), 24 h. How it is done: At 24 h post-treatment, the untreated and treated larvae were placed on a microscope slide at room temperature for light microscopy. Morphological observations were made with an EZ4 HD stereo microscope (35×) equipped with an Integrated 3.0 Mega-Pixel CMOS camera (Leica Microsystems, Heerbrugg, Switzerland). All experiments were performed in duplicate, with 20 mosquito larvae used in each replicate. More than 10 live larvae from the control and treated groups were randomly collected and used for analysis.

Series [3] deals with third-instar larvae of insecticide-susceptible Culex pipiens pallens. Briefly: contact mortality bioassay, 24 h exposure. It counts as in vivo. The conditions noted are these: for LC50: Culex pipiens, 24 h, read-out: LC50 (mg/L) (95% CI). The method, then: (§3) A contact mortality bioassay[25] was used to evaluate the toxicity of all compounds against third-instar larvae of the four mosquito species. Each test compound in methanol was suspended in DW with Triton X-100 (20 µL/L). Groups of 20 mosquito larvae were separately placed into paper cups (270 mL) containing each compound solution (250 mL). […] Negative controls consisted of a methanol–Triton X-100 solution in DW.
(§4) Treated and control (methanol–Triton X-100 solution only) larvae were maintained under the same conditions as those used for colony maintenance without providing food. Larval mortalities were determined 24 h post-treatment. […] All treatments were performed three times using 20 larvae per replicate.
as §2

The subject of series [4] is third-instar larvae of insecticide-susceptible Aedes aegypti. Briefly: contact mortality bioassay, 24 h exposure. The series is classed as in vivo. The conditions noted are these: for LC50: Aedes aegypti, 24 h, read-out: LC50 (mg/L) (95% CI). The method, then:
as §3, §4, §2

[5] abbreviates: Table 6, structure-activity series, 24 h exposure.
The mark [6] stands for this setting: Table 2, KS-CP strain, 24 h exposure, listed as Pure honokiol.
[7] abbreviates: Table 7, structure-activity series, 24 h exposure.
[8] abbreviates: Table 3, 24 h exposure, listed as Pure honokiol.

Sequence of acetylcholinesterase (AChE) from third-instar Ae. aegypti larvae (A4GND7 37-679): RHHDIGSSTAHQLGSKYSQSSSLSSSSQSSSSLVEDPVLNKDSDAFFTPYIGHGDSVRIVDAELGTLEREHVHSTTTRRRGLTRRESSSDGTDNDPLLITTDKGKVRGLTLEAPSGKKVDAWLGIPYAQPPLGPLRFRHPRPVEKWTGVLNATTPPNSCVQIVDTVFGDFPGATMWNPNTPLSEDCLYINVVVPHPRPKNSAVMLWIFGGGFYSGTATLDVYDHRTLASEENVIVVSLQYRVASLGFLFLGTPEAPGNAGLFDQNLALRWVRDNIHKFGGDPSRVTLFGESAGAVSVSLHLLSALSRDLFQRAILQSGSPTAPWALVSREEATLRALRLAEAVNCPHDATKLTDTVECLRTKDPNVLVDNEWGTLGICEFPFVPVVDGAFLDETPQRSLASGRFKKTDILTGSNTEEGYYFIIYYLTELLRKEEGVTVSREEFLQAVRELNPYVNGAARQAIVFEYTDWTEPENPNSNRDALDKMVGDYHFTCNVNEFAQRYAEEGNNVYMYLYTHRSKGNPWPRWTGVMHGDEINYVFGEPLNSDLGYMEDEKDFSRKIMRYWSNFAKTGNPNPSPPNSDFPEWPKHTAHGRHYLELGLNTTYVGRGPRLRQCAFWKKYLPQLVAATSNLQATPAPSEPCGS

As to `C=CCc1ccc(O)c(-c2ccc(O)c(CC=C)c2)c1` [Honokiol, 2-(4-hydroxy-3-prop-2-enyl-phenyl)-4-prop-2-enyl-phenol], in the series with AaV-type H^+-ATPase mRNA, the “AaV-type H^+-ATPase mRNA expression levels” value was “approximately 16 fold”. Also, the “AaAQP4 mRNA expression levels” value with AaAQP4 mRNA was “approximately 18 fold”. The “AeCS1 mRNA levels” value with AeCS1 mRNA worked out at 82%. Also, the “AChE inhibitory activity (in words)” value in series [1] is “moderately”. In addition, the “anal gill region (light microscopy)” value in series [2] was “the anal gill from one side was swollen and reduced from its normal length, and the other one was completely damaged”. Moreover, the “morphology of the whole body (light microscopy)” value in series [2] is “severely damaged, with an indistinct appearance of the thorax, midgut, and abdominal regions”. The LC50 in series [3] (Table 2, KS-CP strain, 24 h exposure) amounted to 6.32 mg/L (≈ 23.7 µM); in series [3] (setting [5]), 6.32 mg/L (≈ 23.7 µM); in series [4] (Table 3, 24 h exposure), 6.51 mg/L (≈ 24.4 µM); in series [4] (setting [7]), 6.51 mg/L (≈ 24.4 µM). In addition, the “times more toxic than the structural isomer magnolol” value in series [3] (Cx. pipiens pallens and Ae. aegypti larvae) is “approximately 4 times”. Further, the “LC90 (mg/L) (95% CI)” value in series [3] (Table 2, KS-CP strain, 24 h exposure, listed as Natural honokiol) was 18.78 (15.30–25.99) mg/L; in series [3] (setting [6]), 19.30 (15.64–27.01) mg/L; in series [3] (setting [5]), 18.78 (15.30–25.99) mg/L; in series [4] (Table 3, 24 h exposure, listed as Natural honokiol), 22.59 (17.70–34.15) mg/L; in series [4] (setting [8]), 23.84 (18.41–37.36) mg/L. Besides, the figures for the “LC50 (mg/L) (95% CI)” value in series [3] (setting [6]) and in series [4] (setting [8]) were 6.38 (5.01–7.78) mg/L and 6.48 (5.11–7.90) mg/L, respectively. Besides, the “times less toxic than temephos” value in series [3] (from 24 h LC50 values) turned out to be 390 times; in series [4] (from 24 h LC50 values), 521 times.

Turning to `C=CCc1ccc(O)c(-c2cc(CC=C)ccc2O)c1` [Magnolol, magnolol], the “AaV-type H^+-ATPase mRNA expression levels” value with AaV-type H^+-ATPase mRNA is reported as roughly 14 fold. Further, the “AaAQP4 mRNA expression levels” value in the series on AaAQP4 mRNA is reported as “did not affect”. Also, in the series with AeCS1 mRNA, the “AeCS1 mRNA levels” value is reported as “up to 503%”. Besides, the “AChE inhibitory activity (in words)” value in series [1] is “strongly”. Besides, in series [2], the “anal gill region (light microscopy)” value is listed as “completely damaged outer cuticle membranes with undistinguishable anal gills with no internal body fluid” and the “morphology of the whole body (light microscopy)” value is “shrunken body with no distinct abdominal segments”. In series [3] (setting [5]), the LC50 amounted to 26 mg/L (≈ 97.6 µM) and the “LC90 (mg/L) (95% CI)” value is given as 80.42 (63.28–117.4) mg/L. For the same compound, in series [4] (setting [7]), the LC50 came out at 25.7 mg/L (≈ 96.5 µM) and the “LC90 (mg/L) (95% CI)” value is 83.14 (64.68–124.4) mg/L.
